Marks after values point to notes of the source that are not given here.
What was measured:
[1] = test system: MoAb MNV87 (IgG1, κ); type: binding, mouse
[2] = test system: PoAbs (anti-NIV polyclonal antibodies, mouse serum); type: binding
[3] = test system: MoAb MNV80 (IgG1, κ); type: binding, mouse
[4] = cited from earlier work
[5] = test system: animals; conditions: cited from earlier work
[6] = test system: monoclonal antibody (MoAb) prepared by Maragos et al.; conditions: cited from earlier work

4-acetylnivalenol [4-Ac-NIV]
IC50 (fifty percent inhibitory concentration) with MoAb MNV87 [1]: >1 µg/mL | reactivity with MNV87 (in words) [1]: not | IC50 (fifty percent inhibitory concentration) with PoAb [2]: >1000 ng/mL | IC50 (fifty percent inhibitory concentration) with MoAb MNV80 [3]: >1 µg/mL | reactivity with MNV80 (in words) [3]: not

CC(=O)O[C@@H]1C[C@]2(C)[C@@]3(CO)[C@H](O)C(=O)C(C)=C[C@H]3O[C@H]1[C@@]21CO1 [3-Ac-DON, 3-acetyldeoxynivalenol]
IC50 (fifty percent inhibitory concentration) with MoAb MNV87 [1]: >1 µg/mL | IC50 (fifty percent inhibitory concentration) with MoAb MNV80 [3]: >1 µg/mL

CC(=O)OC[C@]12[C@H](O)C(=O)C(C)=C[C@H]1O[C@@H]1[C@H](O)C[C@@]2(C)[C@]12CO2 [15-Ac-DON, 15-acetyldeoxynivalenol]
IC50 (fifty percent inhibitory concentration) with MoAb MNV87 [1]: >1 µg/mL | IC50 (fifty percent inhibitory concentration) with MoAb MNV80 [3]: >1 µg/mL

CC(=O)OC[C@]12[C@H](O)C(=O)C(C)=C[C@H]1O[C@@H]1[C@H](O)[C@@H](O)[C@@]2(C)[C@]12CO2 [15-Ac-NIV, 15-acetylnivalenol]
IC50 (fifty percent inhibitory concentration) with MoAb MNV87 [1]: 0.018 µg/mL | fold lower IC50 than that with NIV, MNV87 [1]: 2 fold | reaction range, concentrations between the IC20 and IC80 values, MNV87 [1]: 0.0024 to 0.095 µg/mL | reactivity with MNV87 (in words) [1]: specifically reacted | IC50 (fifty percent inhibitory concentration) with PoAb [2]: 11 ng/mL | fold lower IC50 than that with NIV, PoAbs [2]: 6.4 fold | reaction range, concentrations between the IC20 and IC80 values, PoAbs [2]: 0.0017 to 0.085 µg/mL | IC50 (fifty percent inhibitory concentration) with MoAb MNV80 [3]: 0.018 µg/mL | fold lower IC50 than that with NIV, MNV80 [3]: 2 fold | reaction range, concentrations between the IC20 and IC80 values, MNV80 [3]: 0.0028 to 0.1 µg/mL | reactivity with MNV80 (in words) [3]: specifically reacted

CC1=C[C@H]2O[C@@H]3[C@H](O)C[C@](C)([C@@]2(CO)[C@H](O)C1=O)[C@]31CO1 [DON, deoxynivalenol]
IC50 (fifty percent inhibitory concentration) with MoAb MNV87 [1]: >1 µg/mL | reactivity with MNV87 (in words) [1]: not | IC50 (fifty percent inhibitory concentration) with PoAb [2]: >1000 ng/mL | temporary tolerable daily intake level ([4]; LOAEL with a safety factor of 1000): 1.0 μg/kg body weight | IC50 (fifty percent inhibitory concentration) with MoAb MNV80 [3]: >1 µg/mL | reactivity with MNV80 (in words) [3]: not

CC1=C[C@H]2O[C@@H]3[C@H](O)[C@@H](O)[C@](C)([C@@]2(CO)[C@H](O)C1=O)[C@]31CO1 [NIV, nivalenol]
toxicity to animals compared with DON (in words) [5]: more toxic to animals than DON | IC50 (fifty percent inhibitory concentration) with MoAb MNV87 [1]: 0.037 µg/mL | reaction range, concentrations between the IC20 and IC80 values, MNV87 [1]: 0.0071 to 0.17 µg/mL | reactivity with MNV87 (in words) [1]: specifically reacted | IC50 (fifty percent inhibitory concentration) with PoAb [2]: 70 * ng/mL | IC50 of PoAb after the 1st booster immunization [2]: 1.4 µg/mL | reaction range, concentrations between the IC20 and IC80 values, PoAbs [2]: 0.012 to 0.95 µg/mL | cross-reactivity compared to reactivity with DON [6]: 57.4% | lowest observed adverse effect level [4]: 0.7 mg/kg body weight per day | IC50 (fifty percent inhibitory concentration) with MoAb MNV80 [3]: 0.036 µg/mL | reaction range, concentrations between the IC20 and IC80 values, MNV80 [3]: 0.0069 to 0.18 µg/mL | reactivity with MNV80 (in words) [3]: specifically reacted

From paper PMC9693464 (Toxins, 2022)
